In BindingDB's records for doi:10.1021/acs.jmedchem.7b00875 (University of Florida, 2017):

Target: Neuronal acetylcholine receptor subunit alpha-7 (Homo sapiens, UniProt P36544)
Test: Partial agonist activity at human alpha7 nAChR expressed in Xenopus laevis oocytes assessed as induction of maximum current response administered for 12 secs followed by washout period for 181 secs by voltage clamp technique

Sequence of Neuronal acetylcholine receptor subunit alpha-7 (P36544 whole entry): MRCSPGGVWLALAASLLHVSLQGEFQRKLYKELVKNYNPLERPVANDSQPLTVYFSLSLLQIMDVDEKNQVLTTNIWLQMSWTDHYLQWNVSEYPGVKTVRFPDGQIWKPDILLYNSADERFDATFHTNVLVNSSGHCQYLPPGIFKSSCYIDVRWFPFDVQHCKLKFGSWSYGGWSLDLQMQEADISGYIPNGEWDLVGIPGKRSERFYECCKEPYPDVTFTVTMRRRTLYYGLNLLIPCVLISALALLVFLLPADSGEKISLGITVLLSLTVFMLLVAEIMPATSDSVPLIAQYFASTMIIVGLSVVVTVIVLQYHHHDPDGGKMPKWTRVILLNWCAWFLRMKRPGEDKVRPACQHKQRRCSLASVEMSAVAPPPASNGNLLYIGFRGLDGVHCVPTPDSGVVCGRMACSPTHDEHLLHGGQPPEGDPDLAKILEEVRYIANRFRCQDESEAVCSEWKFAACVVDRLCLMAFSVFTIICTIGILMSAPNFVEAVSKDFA

SMILES: CC[N+]1(CC)CCN(c2ccccc2)CC1
- EC50: 221 µM
